Data taken from patent US20010044102A1, “ASSAYS AND REAGENTS FOR IDENTIFYING MODULATORS OF CDC25-MEDIATED MITOTIC ACTIVATION” (priority 1996, published 2001).

What was measured:
[1] = tested on: cdc25; settings: cited from earlier work
[2] = tested on: Val 5 cells; experiment: Myc-driven apoptosis and DNA replication in MycER cells treated with cdc25A antisense oligonucleotide, scored by TUNEL; format: cell-based; settings: MycER induced by β-estradiol, 0.1% serum, shift from 39 to 32° C., FIG. 5B
Protocol: Finally, to investigate whether induction of the cdc25A gene is essential for Myc-driven apoptosis, we incubated Val 5 cells after MycER induction by β-estradiol with an antisense cdc25A oligonucleotide. Following this incubation, cells were shifted from 39 to 32° C., activating wild type p53 function, which normally results in apoptosis (Wagner et al. (1994) Genes Dev. 8:2817-2830). A scrambled oligonucleotide with the same nucleotide content was used in control experiments. We observed that both apoptosis and DNA replication was inhibited by the treatment with the antisense, but not with scrambled (control) oligonucleotides (FIG. 5B).
Human cdc25A, B and C under control of CMV promoter and pCMV CD20 has been described (Galaktionov et al. (1995) Science 269:1575-1577). […] Apoptotic figures were scored 24 hours later upon microscopic investigation of the cultures based on CD20 staining, indicative of successful transfection (more than 2%, usually 8-10%), and visible morphological changes indicative of cell death (membrane blebbing, chromatin condensation, etc.). […] 48 hours after shifting to 0.1% serum, MycER fusion protein was induced by the addition of β-estradiol and cell incubation continued for another 24 hours, at which point cells were photographed and apoptosis was scored by TUNEL.

| Compound | cdc25 inhibitor (previously described in the literature) [1] | DNA replication [2] |
| --- | --- | --- |
| CN1C2CC3C1C1C(C4=C(C(=O)C(N)=CC4=O)C(CO)N1C2C#N)N1CCOC31 (stereo not drawn) [dnacin A1] | cdc25 inhibitors |  |
| CN1C2CC3C1C1C(C4=C(C(=O)C(N)=CC4=O)C(CO)N1C2O)N1CCOC31 (stereo not drawn) [dnacin B1] | cdc25 inhibitors |  |
| scrambled oligonucleotide: scrambled oligonucleotide (GGTACCTTGACCCGGGCTCG) with the same nucleotide content, used as control (chemistry not given here) |  | not |
